Data: US6797255B1, “Methods and compositions for enhancing magnetic resonance imaging” (Mallinckrodt Inc., priority 1985, dated 2004)

Columns and labels:
[1] = Solubility of the complex in water; assay type: physicochemical
Procedure: (§1) The complex, dihydrogen bis(N-[N′-(2,6-diisopropylphenyl)carbamoylmethyl]iminodiaceto)manganese(II) hydrate, was thus isolated as the hydrated species. The solubility of the complex in water was determined to be approximately 0.1% w/v. The relaxation parameters T1 and T2 of a 10-^−3M solution of the complex in a 90 MHz NMR experiment were determined to be 0.107 sec. and 0.007 sec. respectively. The T1 and T2 values for water are 2.51 sec. and 0.150 sec., respectively.
(§2) The relaxation parameters T1 and T2 of a 10^−3M solution of the complex in a 90 MHz NMR experiment were determined to be 126 milliseconds and 1.5 milliseconds, respectively.

rabbit = assay: Tissue T1 and T2 relaxation times 5 min, 15 min or 1 week after 0.05 mmol/kg intravenous dose; assay type: in vivo; details: 0.05 mmol/kg i.v.
Procedure: All experiments employing the complex dihydrogen bis(N-[N′-(2,6-dimethylphenyl)carbamoylmethyl]iminodiaceto)manganese (II) trihydrate were conducted following intravenous administration to rabbits. A 10 mM solution of the complex was used in these studies. Rabbits were anesthetized with ketamine/xylazine prior to treatment. The results given were obtained with a 10 mHz RADX proton spin analyzer.
In another study, employing an intravenous dose of 0.05 mmol of the complex/Kg, one rabbit was killed at time points of 5 min, 15 min or 1 week after dosing. In animals killed at 5 and 15 min, heart and liver T1 and T2 relaxation times were determined with 5 and 10 mHz instruments.

[2] = Relaxation parameters T1 and T2 of a 10^−3M solution in a 90 MHz NMR experiment; assay type: physicochemical; details: 10^−3M solution
Procedure: as §1, §2

Structure (SMILES): Cc1cccc(C)c1NC(=O)CN(CC(=O)[O-])CC(=O)O.Cc1cccc(C)c1NC(=O)CN(CC(=O)[O-])CC(=O)O.O.O.O.[Mn+2] [Example 2]
- solubility of the complex in water [1]: 2.5 % w/v
- solubility of the complex in water (molar) [1]: approximately 3.6×10^−3 M
- heart and liver T1 values (rabbit; killed at 5 and 15 min, 5 and 10 mHz instruments): reduced tissue T1 values at both frequencies
- tissue T1 and T2 relaxation times (rabbit; rabbit killed at 1 week): returned to control values
- relaxation parameter T1 [2]: 126 milliseconds
- relaxation parameter T2 [2]: 1.5 milliseconds
